Test results published in publication PMC10495264 (Nature Cell Biology, 2023).
Like-named read-outs stand apart in the source and are kept apart here.

Assays:
TORC1 [1] = target: T1, TORC1 (Saccharomyces cerevisiae, UniProt P35169); assay: Yeast TORC1 kinase activity assays (radioactive IVK, Lst4^Loop substrate); assay type: biochemical; conditions: for In vitro TORC1 kinase assay - CoA compounds, relative activity, Mean: Fig. 8b; for IC50: Lst4^Loop phosphorylation, detection limit 6 mM, n = 3, read-out: IC50 (yeast TORC1 IVK)
T1 construct: made in house; host or cells: S. cerevisiae strain NIC005 ([RL170-2c] LEU2:GFP-TOR1)
T1 sequence (P35169 whole entry): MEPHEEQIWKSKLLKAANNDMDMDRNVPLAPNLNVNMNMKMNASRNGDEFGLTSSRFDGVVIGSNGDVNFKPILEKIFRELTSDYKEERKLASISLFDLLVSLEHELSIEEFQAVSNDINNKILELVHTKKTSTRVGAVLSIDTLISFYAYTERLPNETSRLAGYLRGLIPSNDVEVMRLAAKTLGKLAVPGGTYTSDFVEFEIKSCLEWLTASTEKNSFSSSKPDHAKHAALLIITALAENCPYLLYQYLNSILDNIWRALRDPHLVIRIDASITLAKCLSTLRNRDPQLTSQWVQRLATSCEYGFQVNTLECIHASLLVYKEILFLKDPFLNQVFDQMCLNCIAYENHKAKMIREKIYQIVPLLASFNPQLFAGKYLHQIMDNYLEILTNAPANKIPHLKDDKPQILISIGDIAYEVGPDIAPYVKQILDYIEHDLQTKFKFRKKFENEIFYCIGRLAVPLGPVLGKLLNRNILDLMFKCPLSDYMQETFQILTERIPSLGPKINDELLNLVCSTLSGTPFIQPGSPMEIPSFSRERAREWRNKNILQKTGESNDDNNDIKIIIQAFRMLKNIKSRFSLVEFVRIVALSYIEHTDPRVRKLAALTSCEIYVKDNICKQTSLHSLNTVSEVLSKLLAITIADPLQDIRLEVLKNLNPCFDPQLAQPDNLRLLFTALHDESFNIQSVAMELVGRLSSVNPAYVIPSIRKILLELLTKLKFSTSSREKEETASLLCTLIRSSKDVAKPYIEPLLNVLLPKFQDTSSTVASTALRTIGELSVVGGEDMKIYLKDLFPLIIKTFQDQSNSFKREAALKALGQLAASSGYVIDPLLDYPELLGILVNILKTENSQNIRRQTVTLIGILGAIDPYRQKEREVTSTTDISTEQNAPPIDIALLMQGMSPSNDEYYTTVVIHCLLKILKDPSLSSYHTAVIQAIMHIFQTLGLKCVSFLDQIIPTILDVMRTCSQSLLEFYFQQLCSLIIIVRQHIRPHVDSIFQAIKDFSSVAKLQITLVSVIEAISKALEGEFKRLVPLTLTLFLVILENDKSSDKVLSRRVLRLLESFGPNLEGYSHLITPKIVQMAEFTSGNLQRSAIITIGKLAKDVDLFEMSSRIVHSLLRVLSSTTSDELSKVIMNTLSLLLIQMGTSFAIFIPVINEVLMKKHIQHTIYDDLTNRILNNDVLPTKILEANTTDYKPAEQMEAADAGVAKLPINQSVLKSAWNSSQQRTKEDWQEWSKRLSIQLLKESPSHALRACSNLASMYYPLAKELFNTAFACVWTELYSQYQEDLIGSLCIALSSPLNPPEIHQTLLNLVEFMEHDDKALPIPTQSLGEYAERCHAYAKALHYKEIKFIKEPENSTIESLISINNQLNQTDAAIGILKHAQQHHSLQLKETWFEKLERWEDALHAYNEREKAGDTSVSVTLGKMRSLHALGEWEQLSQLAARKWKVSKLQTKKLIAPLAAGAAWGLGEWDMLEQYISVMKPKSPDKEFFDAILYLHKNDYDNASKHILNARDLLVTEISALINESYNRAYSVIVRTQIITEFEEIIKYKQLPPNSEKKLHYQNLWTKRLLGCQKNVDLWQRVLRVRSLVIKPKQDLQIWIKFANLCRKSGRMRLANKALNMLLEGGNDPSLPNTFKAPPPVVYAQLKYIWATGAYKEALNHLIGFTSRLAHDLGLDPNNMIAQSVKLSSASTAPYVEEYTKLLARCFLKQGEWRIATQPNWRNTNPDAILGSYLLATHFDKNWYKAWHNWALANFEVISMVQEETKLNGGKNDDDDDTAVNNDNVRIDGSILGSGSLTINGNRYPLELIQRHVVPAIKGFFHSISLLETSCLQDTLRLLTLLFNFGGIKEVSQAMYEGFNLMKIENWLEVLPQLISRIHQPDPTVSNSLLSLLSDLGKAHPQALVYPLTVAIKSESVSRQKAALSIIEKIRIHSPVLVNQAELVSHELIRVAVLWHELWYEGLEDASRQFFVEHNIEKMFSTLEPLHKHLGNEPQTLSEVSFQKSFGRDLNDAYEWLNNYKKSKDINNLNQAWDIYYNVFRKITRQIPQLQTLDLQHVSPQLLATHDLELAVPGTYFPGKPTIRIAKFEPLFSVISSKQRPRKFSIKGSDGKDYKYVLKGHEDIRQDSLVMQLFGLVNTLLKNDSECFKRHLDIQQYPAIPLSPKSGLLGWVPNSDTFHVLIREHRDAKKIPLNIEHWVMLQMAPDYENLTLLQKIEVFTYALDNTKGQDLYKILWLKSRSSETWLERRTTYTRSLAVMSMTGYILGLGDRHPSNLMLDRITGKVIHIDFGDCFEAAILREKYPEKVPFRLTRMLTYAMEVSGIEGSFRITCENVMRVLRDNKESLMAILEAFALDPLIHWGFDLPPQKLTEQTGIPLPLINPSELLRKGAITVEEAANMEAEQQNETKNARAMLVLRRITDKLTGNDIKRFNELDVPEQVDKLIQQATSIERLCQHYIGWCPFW
T1 sequence (Q08921 whole entry partner): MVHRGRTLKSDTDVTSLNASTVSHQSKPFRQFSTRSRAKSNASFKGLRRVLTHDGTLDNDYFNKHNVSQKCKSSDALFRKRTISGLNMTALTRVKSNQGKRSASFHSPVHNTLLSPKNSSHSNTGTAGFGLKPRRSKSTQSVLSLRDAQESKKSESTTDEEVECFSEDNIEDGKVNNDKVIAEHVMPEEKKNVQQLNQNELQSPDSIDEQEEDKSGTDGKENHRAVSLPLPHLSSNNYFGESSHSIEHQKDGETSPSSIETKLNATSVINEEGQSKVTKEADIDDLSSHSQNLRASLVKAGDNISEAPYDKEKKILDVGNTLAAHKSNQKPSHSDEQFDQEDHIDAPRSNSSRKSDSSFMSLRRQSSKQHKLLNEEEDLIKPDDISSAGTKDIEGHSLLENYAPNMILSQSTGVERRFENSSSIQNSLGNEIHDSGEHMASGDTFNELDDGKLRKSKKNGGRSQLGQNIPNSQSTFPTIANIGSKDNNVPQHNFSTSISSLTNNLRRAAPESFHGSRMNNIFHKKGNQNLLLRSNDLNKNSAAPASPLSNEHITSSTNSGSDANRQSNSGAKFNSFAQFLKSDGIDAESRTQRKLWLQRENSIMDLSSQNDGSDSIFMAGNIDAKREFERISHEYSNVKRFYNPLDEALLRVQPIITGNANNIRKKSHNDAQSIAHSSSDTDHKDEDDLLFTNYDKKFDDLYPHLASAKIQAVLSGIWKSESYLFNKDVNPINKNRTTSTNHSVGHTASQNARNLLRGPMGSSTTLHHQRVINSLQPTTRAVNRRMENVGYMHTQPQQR
T1 sequence (P38873 whole entry partner): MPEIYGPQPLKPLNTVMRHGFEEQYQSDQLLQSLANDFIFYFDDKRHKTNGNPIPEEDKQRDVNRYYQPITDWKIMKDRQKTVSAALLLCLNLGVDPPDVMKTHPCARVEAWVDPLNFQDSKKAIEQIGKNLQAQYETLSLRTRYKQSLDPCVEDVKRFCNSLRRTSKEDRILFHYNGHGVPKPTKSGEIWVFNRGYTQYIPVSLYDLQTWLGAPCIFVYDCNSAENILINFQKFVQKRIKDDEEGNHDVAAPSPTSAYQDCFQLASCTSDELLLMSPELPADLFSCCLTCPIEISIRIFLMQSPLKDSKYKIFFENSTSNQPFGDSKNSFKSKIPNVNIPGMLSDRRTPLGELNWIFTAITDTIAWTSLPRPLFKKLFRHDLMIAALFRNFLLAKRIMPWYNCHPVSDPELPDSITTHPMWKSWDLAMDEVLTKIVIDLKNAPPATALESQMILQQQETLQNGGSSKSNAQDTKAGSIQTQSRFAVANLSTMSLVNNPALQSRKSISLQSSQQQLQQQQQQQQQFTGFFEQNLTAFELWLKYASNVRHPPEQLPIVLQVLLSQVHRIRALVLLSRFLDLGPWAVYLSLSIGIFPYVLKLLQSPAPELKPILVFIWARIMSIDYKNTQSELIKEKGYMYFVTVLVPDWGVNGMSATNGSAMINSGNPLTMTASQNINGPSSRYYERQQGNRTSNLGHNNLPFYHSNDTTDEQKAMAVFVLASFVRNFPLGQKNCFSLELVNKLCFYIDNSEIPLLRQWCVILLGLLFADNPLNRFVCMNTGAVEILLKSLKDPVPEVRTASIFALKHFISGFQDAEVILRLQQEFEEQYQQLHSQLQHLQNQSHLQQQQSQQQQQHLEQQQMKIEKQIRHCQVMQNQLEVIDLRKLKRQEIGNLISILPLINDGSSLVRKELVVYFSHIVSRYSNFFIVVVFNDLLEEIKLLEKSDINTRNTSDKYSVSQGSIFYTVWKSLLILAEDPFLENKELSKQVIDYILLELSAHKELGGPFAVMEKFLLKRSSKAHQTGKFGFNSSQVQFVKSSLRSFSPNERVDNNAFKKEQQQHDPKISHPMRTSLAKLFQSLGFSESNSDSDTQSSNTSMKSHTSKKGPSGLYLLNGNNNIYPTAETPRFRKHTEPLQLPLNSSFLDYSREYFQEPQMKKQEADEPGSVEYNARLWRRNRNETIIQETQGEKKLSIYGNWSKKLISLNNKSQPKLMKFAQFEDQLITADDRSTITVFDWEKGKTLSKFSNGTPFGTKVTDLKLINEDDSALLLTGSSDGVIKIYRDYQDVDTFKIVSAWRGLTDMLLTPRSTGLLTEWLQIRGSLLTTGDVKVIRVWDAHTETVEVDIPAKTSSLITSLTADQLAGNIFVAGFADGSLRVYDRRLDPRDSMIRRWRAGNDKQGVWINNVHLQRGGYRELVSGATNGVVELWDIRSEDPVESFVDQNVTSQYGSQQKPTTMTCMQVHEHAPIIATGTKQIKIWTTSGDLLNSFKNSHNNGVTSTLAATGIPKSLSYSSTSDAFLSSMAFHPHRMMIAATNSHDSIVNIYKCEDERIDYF
T1 sequence (P41318 whole entry partner): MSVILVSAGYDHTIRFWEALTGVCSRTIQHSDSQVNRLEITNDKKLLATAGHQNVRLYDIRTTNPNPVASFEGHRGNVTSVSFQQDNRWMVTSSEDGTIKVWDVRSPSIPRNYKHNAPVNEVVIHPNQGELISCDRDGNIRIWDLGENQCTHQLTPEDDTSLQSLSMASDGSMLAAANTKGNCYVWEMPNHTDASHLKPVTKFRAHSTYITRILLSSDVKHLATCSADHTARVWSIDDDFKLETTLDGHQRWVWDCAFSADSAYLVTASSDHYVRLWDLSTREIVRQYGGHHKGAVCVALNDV
Method: TORC1 was purified from yeast cells and radioactive IVK assays were performed essentially as previously described. Briefly, kinase reactions (total volume, 30 μl) were performed with 400 ng of purified His6–Lst4^Loop protein and 60 ng TORC1 in kinase buffer (50 mM HEPES NaOH pH 7.5 and 150 mM NaCl). […] All reactions were carried out at 30 °C for 10 min and stopped with the addition of 3×sample buffer (50 mM Tris–HCl pH 6.8, 5% SDS, 0.05% bromophenol blue, 630 mM DTT and 30% glycerol) and heating at 65 °C for 10 min. Proteins were separated by SDS–PAGE and stained in-gel with SYPRO Ruby (S4942, Sigma-Aldrich) as the loading control. Substrate phosphorylation was analysed by autoradiography using a Typhoon FLA 9500 phosphorimager (GE Healthcare) and the raw density of the signals was quantified using the gel analysis tool of ImageJ.

mTORC1 = target: T2, mTORC1 (Homo sapiens, UniProt P42345); assay: Mammalian mTORC1 kinase activity assays (IVK, 4E-BP1 substrate); assay type: biochemical; conditions: for In vitro mTORC1 assay, p-4E-BP1(T37/46)/4E-BP1, Mean: Fig. 8f, relative to 0 mM
T2 construct: endogenous mTORC1 complexes were purified from HEK293FT cells; endogenous in cells; host or cells: HEK293FT (immunoprecipitation of endogenous mTOR); the 4E-BP1 substrate was made in E. coli BL21 RP
Method: Following the last wash step with CHAPS IP wash buffer, the beads were washed once with kinase wash buffer (25 mM HEPES pH 7.4 and 20 mM KCl) and excess liquid was removed using a Hamilton syringe—the final bead volume was approximately 10 μl. Kinase reactions were prepared by adding 10 μl of 3×kinase assay buffer (75 mM HEPES KOH pH 7.4, 60 mM KCl and 30 mM MgCl2) to the beads. […] The reactions were incubated at 30 °C for 30 min, and stopped by the addition of one volume of 2×SDS loading buffer and boiling (5 min, 95 °C). […] Signals were quantified using the gel analysis tool of ImageJ and are shown as the phospho-4E-BP1^T37/46/4E-BP1 ratio.

TORC1 [2] = assay: TORC1 activity in yeast cells, p-Sch9^T737/Sch9 immunoblot; assay type: cell-based, Saccharomyces cerevisiae; conditions: wt Ctrl = 1
[3] = compound 0.073 mM, normalised to this concentration

Q: `CC(C)(COP(=O)(O)OP(=O)(O)OC[C@H]1O[C@@H](n2cnc3c(N)ncnc32)[C@H](O)[C@@H]1OP(=O)(O)O)[C@@H](O)C(=O)NCCC(=O)NCCS` [CoA, coenzyme A] was tested. Which “In vitro TORC1 kinase assay - CoA compounds, relative activity, Mean” value (TORC1 [1]; [3]) did it give?
A: 1

Q: And the “In vitro TORC1 kinase assay - CoA compounds, relative activity, Mean” value (TORC1 [1]; compound 0.22 mM)?
A: 1.005

Q: And the “In vitro TORC1 kinase assay - CoA compounds, relative activity, Mean” value (TORC1 [1]; compound 2 mM)?
A: 0.9479

Q: What about the “In vitro TORC1 kinase assay - CoA compounds, relative activity, Mean” value (TORC1 [1]; compound 6 mM) of the same compound?
A: 0.6805

Q: And the IC50 (TORC1 [1])?
A: > 6000 µM

Q: What about the IC50 (mTORC1) of the same compound?
A: > 5000 µM

Q: And the “In vitro mTORC1 assay, p-4E-BP1(T37/46)/4E-BP1, Mean” value (mTORC1; compound 0.01 mM)?
A: 0.8503

Q: And the “In vitro mTORC1 assay, p-4E-BP1(T37/46)/4E-BP1, Mean” value (mTORC1; compound 0.05 mM)?
A: 0.8507

Q: What about the “In vitro mTORC1 assay, p-4E-BP1(T37/46)/4E-BP1, Mean” value (mTORC1; compound 0.1 mM) of the same compound?
A: 1.093

Q: And the “In vitro mTORC1 assay, p-4E-BP1(T37/46)/4E-BP1, Mean” value (mTORC1; compound 0.5 mM)?
A: 0.8643

Q: What about the “In vitro mTORC1 assay, p-4E-BP1(T37/46)/4E-BP1, Mean” value (mTORC1; compound 1 mM) of the same compound?
A: 1.061

Q: What about the “In vitro mTORC1 assay, p-4E-BP1(T37/46)/4E-BP1, Mean” value (mTORC1; compound 2.5 mM) of the same compound?
A: 0.926

Q: What about the “In vitro mTORC1 assay, p-4E-BP1(T37/46)/4E-BP1, Mean” value (mTORC1; compound 5 mM) of the same compound?
A: 0.889

Q: `NC(=O)CC[C@H](N)C(=O)O` [Gln, glutamine] was tested. Which “p-Sch9(T737)/Sch9, Mean” value (TORC1 [2]; Acc1-GFP yeast, nitrogen-starved then +Gln 1 min, ED Fig. 2e) did it give?
A: 0.2777

Q: And the “p-Sch9(T737)/Sch9, Mean” value (TORC1 [2]; Acc1-GFP yeast, nitrogen-starved then +Gln 2 min, ED Fig. 2e)?
A: 0.2567

Q: What about the “p-Sch9(T737)/Sch9, Mean” value (TORC1 [2]; Acc1-GFP yeast, nitrogen-starved then +Gln 5 min, ED Fig. 2e) of the same compound?
A: 0.172

Q: And the “p-Sch9(T737)/Sch9, Mean” value (TORC1 [2]; acc1E392K yeast, nitrogen-starved then +Gln 1 min, ED Fig. 1g)?
A: 0.2184

Q: And the “p-Sch9(T737)/Sch9, Mean” value (TORC1 [2]; acc1E392K yeast, nitrogen-starved then +Gln 2 min, ED Fig. 1g)?
A: 0.4052

Q: And the “p-Sch9(T737)/Sch9, Mean” value (TORC1 [2]; acc1E392K yeast, nitrogen-starved then +Gln 5 min, ED Fig. 1g)?
A: 0.172

Q: What about the “p-Sch9(T737)/Sch9, Mean” value (TORC1 [2]; acc1E392K yeast, nitrogen-starved then +Gln 15 min, ED Fig. 1g) of the same compound?
A: 0.07897

Q: And the “p-Sch9(T737)/Sch9, Mean” value (TORC1 [2]; acc1E392K,S1157A yeast, nitrogen-starved then +Gln 1 min, ED Fig. 1g)?
A: 0.2597

Q: What about the “p-Sch9(T737)/Sch9, Mean” value (TORC1 [2]; acc1E392K,S1157A yeast, nitrogen-starved then +Gln 2 min, ED Fig. 1g) of the same compound?
A: 0.4125

Q: What about the “p-Sch9(T737)/Sch9, Mean” value (TORC1 [2]; acc1E392K,S1157A yeast, nitrogen-starved then +Gln 5 min, ED Fig. 1g) of the same compound?
A: 0.1831

Q: What about the “p-Sch9(T737)/Sch9, Mean” value (TORC1 [2]; acc1E392K,S1157A yeast, nitrogen-starved then +Gln 15 min, ED Fig. 1g) of the same compound?
A: 0.0777

Q: And the “p-Sch9(T737)/Sch9, Mean” value (TORC1 [2]; acc1S1157A yeast, nitrogen-starved then +Gln 1 min, ED Fig. 1g)?
A: 0.08981

Q: What about the “p-Sch9(T737)/Sch9, Mean” value (TORC1 [2]; acc1S1157A yeast, nitrogen-starved then +Gln 1 min, ED Fig. 2e) of the same compound?
A: 0.1842

Q: What about the “p-Sch9(T737)/Sch9, Mean” value (TORC1 [2]; acc1S1157A yeast, nitrogen-starved then +Gln 1 min, Fig. 2e) of the same compound?
A: 0.5322

Q: And the “p-Sch9(T737)/Sch9, Mean” value (TORC1 [2]; acc1S1157A yeast, nitrogen-starved then +Gln 2 min, ED Fig. 1g)?
A: 0.2298

Q: What about the “p-Sch9(T737)/Sch9, Mean” value (TORC1 [2]; acc1S1157A yeast, nitrogen-starved then +Gln 2 min, ED Fig. 2e) of the same compound?
A: 0.2323

Q: What about the “p-Sch9(T737)/Sch9, Mean” value (TORC1 [2]; acc1S1157A yeast, nitrogen-starved then +Gln 2 min, Fig. 2e) of the same compound?
A: 0.5731

Q: And the “p-Sch9(T737)/Sch9, Mean” value (TORC1 [2]; acc1S1157A yeast, nitrogen-starved then +Gln 5 min, ED Fig. 1g)?
A: 0.1433

Q: What about the “p-Sch9(T737)/Sch9, Mean” value (TORC1 [2]; acc1S1157A yeast, nitrogen-starved then +Gln 5 min, ED Fig. 2e) of the same compound?
A: 0.1614

Q: What about the “p-Sch9(T737)/Sch9, Mean” value (TORC1 [2]; acc1S1157A yeast, nitrogen-starved then +Gln 5 min, Fig. 2e) of the same compound?
A: 0.2159

Q: What about the “p-Sch9(T737)/Sch9, Mean” value (TORC1 [2]; acc1S1157A yeast, nitrogen-starved then +Gln 15 min, ED Fig. 1g) of the same compound?
A: 0.0801

Q: And the “p-Sch9(T737)/Sch9, Mean” value (TORC1 [2]; acc1S1157A yeast, nitrogen-starved then +Gln 15 min, Fig. 2e)?
A: 0.1147

Q: And the “p-Sch9(T737)/Sch9, Mean” value (TORC1 [2]; acc1S1157A-GFP yeast, nitrogen-starved then +Gln 1 min, ED Fig. 2e)?
A: 0.2949

Q: What about the “p-Sch9(T737)/Sch9, Mean” value (TORC1 [2]; acc1S1157A-GFP yeast, nitrogen-starved then +Gln 2 min, ED Fig. 2e) of the same compound?
A: 0.2508

Q: What about the “p-Sch9(T737)/Sch9, Mean” value (TORC1 [2]; acc1S1157A-GFP yeast, nitrogen-starved then +Gln 5 min, ED Fig. 2e) of the same compound?
A: 0.1919

Q: And the “p-Sch9(T737)/Sch9, Mean” value (TORC1 [2]; wt yeast, nitrogen-starved then +Gln 1 min, n = 3, ED Fig. 2e)?
A: 0.3518

Q: And the “p-Sch9(T737)/Sch9, Mean” value (TORC1 [2]; wt yeast, nitrogen-starved then +Gln 1 min, n = 4, ED Fig. 1g)?
A: 0.1938

Q: What about the “p-Sch9(T737)/Sch9, Mean” value (TORC1 [2]; wt yeast, nitrogen-starved then +Gln 2 min, Fig. 2e) of the same compound?
A: 0.8468

Q: And the “p-Sch9(T737)/Sch9, Mean” value (TORC1 [2]; wt yeast, nitrogen-starved then +Gln 2 min, n = 3, ED Fig. 2e)?
A: 0.2928

Q: What about the “p-Sch9(T737)/Sch9, Mean” value (TORC1 [2]; wt yeast, nitrogen-starved then +Gln 2 min, n = 4, ED Fig. 1g) of the same compound?
A: 0.4107

Q: What about the “p-Sch9(T737)/Sch9, Mean” value (TORC1 [2]; wt yeast, nitrogen-starved then +Gln 5 min, Fig. 2e) of the same compound?
A: 0.2605

Q: What about the “p-Sch9(T737)/Sch9, Mean” value (TORC1 [2]; wt yeast, nitrogen-starved then +Gln 5 min, n = 3, ED Fig. 2e) of the same compound?
A: 0.215

Q: And the “p-Sch9(T737)/Sch9, Mean” value (TORC1 [2]; wt yeast, nitrogen-starved then +Gln 5 min, n = 4, ED Fig. 1g)?
A: 0.1743

Q: What about the “p-Sch9(T737)/Sch9, Mean” value (TORC1 [2]; wt yeast, nitrogen-starved then +Gln 15 min, Fig. 2e) of the same compound?
A: 0.1412

Q: And the “p-Sch9(T737)/Sch9, Mean” value (TORC1 [2]; wt yeast, nitrogen-starved then +Gln 15 min, n = 4, ED Fig. 1g)?
A: 0.07833

Q: What does the source list for `CC(=O)SCCNC(=O)CCNC(=O)[C@H](O)C(C)(C)COP(=O)(O)OP(=O)(O)OC[C@H]1O[C@@H](n2cnc3c(N)ncnc32)[C@H](O)[C@@H]1OP(=O)(O)O` [acetyl-CoA]?
A: In vitro TORC1 kinase assay - CoA compounds, relative activity, Mean (TORC1 [1]; [3]): 1; In vitro TORC1 kinase assay - CoA compounds, relative activity, Mean (TORC1 [1]; compound 0.22 mM): 0.9698; In vitro TORC1 kinase assay - CoA compounds, relative activity, Mean (TORC1 [1]; compound 2 mM): 0.7319; In vitro TORC1 kinase assay - CoA compounds, relative activity, Mean (TORC1 [1]; compound 6 mM): 0.5296; IC50 (TORC1 [1]): 2880 µM; In vitro mTORC1 assay, p-4E-BP1(T37/46)/4E-BP1, Mean (mTORC1; compound 0.01 mM): 0.9483; In vitro mTORC1 assay, p-4E-BP1(T37/46)/4E-BP1, Mean (mTORC1; compound 0.05 mM): 0.8033; In vitro mTORC1 assay, p-4E-BP1(T37/46)/4E-BP1, Mean (mTORC1; compound 0.1 mM): 0.8597; In vitro mTORC1 assay, p-4E-BP1(T37/46)/4E-BP1, Mean (mTORC1; compound 0.5 mM): 0.644; In vitro mTORC1 assay, p-4E-BP1(T37/46)/4E-BP1, Mean (mTORC1; compound 1 mM): 0.6848; In vitro mTORC1 assay, p-4E-BP1(T37/46)/4E-BP1, Mean (mTORC1; compound 2.5 mM): 0.4704; In vitro mTORC1 assay, p-4E-BP1(T37/46)/4E-BP1, Mean (mTORC1; compound 5 mM): 0.3906; IC50 (mTORC1; mTORC1 immunoprecipitated from HEK293FT, recombinant 4E-BP1, 500 μM ATP): 1030 µM
